{
  "source": "patent US12275685B2",
  "about": "“Oligo-benzamide analogs and their use in cancer treatment” (Board of Regents, The University of Texas System, priority 2018, dated 2025)",
  "key": {"[1]": {"system": "ES2 and SKOV3 ovarian cancer cells", "assay": "Matrigel invasion chamber assay", "assay_type": "cell-based", "method": "FIG. 44: ES2 and SKOV3 cells were treated with ERX-208 and its effect on invasion was measured using Matrigel invasion chamber assays. ****p<0.0001.\n(§1) ERX-208. […] Functionally, ERX-208 causes growth inhibition of OCa cells, as noted by MTT assays using five established OCa cells (ES2, SKOV3, A2780, TOV21G, TOV112D) and five primary OCa cells derived from HGSOC patient ascites (AS21, AS23, AS25, AS28, AS29) (FIGS. 42B-C). […] The inventor noted an IC50 of ˜50-100 nM for ERX-208 both for inducing ERS and in reducing the growth of OCa cells."}, "[2]": {"system": "HGSOC PDX tumors", "assay": "HGSOC PDX tumors", "assay_type": "in vivo, NSG mice", "settings": "21 days", "method": "FIGS. 48A-F: OCa PDX (n=6) tumors were established in the flanks of NSG mice. When the tumors reached 200 mm^3, treatment with vehicle or 10 mg/kg/day/i.p. ERX-208 was initiated. (FIG. 48A) Tumor volume, (FIG. 48B) tumor weight, (FIG. 48C) tumors picture, and\n(FIG. 48D) body weight is shown. (FIGS. 48E-F) IHC analysis of GRP 78 as a marker of ER stress *p<0.05; **p<0.01, ****p<0.0001.\n(§2) ERX-208 suppressed growth of ES2 CDX tumors. ES2 cells stably labelled with GFP/LUC reporter (2×10^5) were injected i.p. into nude mice. Following establishment of tumors, mice (n=5/group) were randomized and treated for 5 days/week with either 10 mg/kg/ip of ERX-208 or vehicle. […] ERX-208 is effective in reducing growth of HGSOC PDX tumors. Following establishment of PDX tumors, NSG mice (n=6/group) were randomized and treated for 5 days/week with either 10 mg/kg/ip of ERX-208 or vehicle."}, "[3]": {"system": "normal ovarian surface epithelial cells (IOSE)", "assay": "MTT assay in IOSE cells", "assay_type": "cell-based", "method": "(§3) FIGS. 42A-D: OCa cells were treated with ERX-11 (FIG. 42A) or ERX-208 (FIG. 42B). Primary OCa cells derived from ascites were treated with ERX-208 for 72 h (FIG. 42C) and cell viability by MTT assays. (FIG. 42D) Effect of ERX-208 on viability of IOSE cells was measured using MTT assays and TOV21G was used as +ve control.\nas §1"}, "[4]": {"system": "OCa cells", "assay": "Caspase-Glo 3/7 apoptosis assay", "assay_type": "cell-based", "method": "(§4) FIGS. 12A-12D show the effect of TK208 against ovarian cancer cell lines ES2 (FIGS. 12A & 12B) and SKOV3 (FIGS. 12C & 12D).\nFIG. 45: ERX-208 effect on apoptosis of OCa cells was measured using Caspase-Glo® 3/7 Assays. ****p<0.0001.\nas §1"}, "[5]": {"system": "carboplatin resistant OCa cells", "assay": "Chemotherapy resistant OCa cells, MTT and apoptosis assay", "assay_type": "cell-based", "method": "(§5) FIGS. 49A-F: (FIGS. 49A-B) Effect of ERX-208 on chemotherapy resistant OCa cells was measured by MTT and apoptosis assay. (FIGS. 49C-F) Platinum-resistant PDX tumors were treated with vehicle or ERX-208 (10 mg/kg/day/i.p). Tumor volume (FIG. 49C), weights (FIG. 49D) tumors picture (FIG. 49E), bodyweights (FIG. 49F) are shown. ** P<0.01, ***p<0.001 ****p<0.0001.\n(§6) ERX-208 is effective in reducing growth of chemotherapy resistant OCa. OCa initially responds to chemotherapy; however, majority will develop chemotherapy resistance. […] The inventors conducted a proof of principle study using a therapy resistant HGSOC PDX model received from the UTHealth OBGYN PDX core. ERX-208 treatment resulted ˜60% reduction in tumor volume (FIGS. 49C-F)."}, "[6]": {"system": "triple-negative breast cancer cells (TNBC)", "assay": "Growth inhibition of TNBC cells", "assay_type": "cell-based", "excerpt": "(§7) FIGS. 10A & 10B show effects of TK208 against cancer cells.\nTNBC is difficult to be treated and currently there are no good drugs available in the market.\n(§8) In addition, another tris-benzmaide compound TK208 was synthesized and tested against breast cancer and ovarian cancer cell lines (FIGS. 10-15). […] These compounds (e.g., TK41, TK208, TK308 (FIG. 21), TK309 (FIG. 22), TK314, TK315) are extremely potent compounds that inhibit tumor growth and kill breast and ovarian cancer cells and as such, they are superb therapeutic candidates for such diseases."}, "[7]": {"system": "therapy resistant HGSOC PDX", "assay": "Therapy resistant HGSOC PDX model", "assay_type": "in vivo, mice", "settings": "10 mg/kg/day/i.p", "method": "as §5, §6"}, "[8]": {"system": "ovarian tumor", "assay": "Ovarian xenograft and PDX models of TK208", "assay_type": "in vivo, mouse", "method": "FIGS. 33A-H. FIGS. 33A-D show ovarian cancer xenografts (ES2) treated with vehicle or TK208 (ERX-208). Tumor volume (FIG. 33A), body weight (FIG. 33B) distribution of tumor weights at necropsy (FIG. 33C) and nodules (FIG. 33D) were graphed. FIGS. 33E-H show ovarian PDX tumors were treated with vehicle or TK208 (ERX-208). Tumor volume (FIG. 33E), distribution of tumor weights at necropsy (FIG. 33F) and tumor images (FIG. 33G) and body weight (FIG. 33H) were graphed.\nThe inventors have tested the in vivo activity of TK208 (ERX-208) using both ovarian xenograft and PDX models."}, "[9]": {"system": "OCa cells", "assay": "ER stress (ERS)/UPR induction in OCa cells, RT-PCR and western", "assay_type": "cell-based", "method": "FIG. 40: Time course of induction of sXBP1 and CHOP mRNA in 4 OCa cell lines—ES2, SKOV3, OVCAR3 and OVCAR4 by ERX-208. Following treatment of OCa cell lines with 100 nM ERX-208, cells were harvested at various time points and lysates subjected to RT-PCR for both CHOP and sXBP1.\nFIG. 41: OCa cells were treated with ERX-208 for 16 h and the status of UPR proteins were determined using western blotting.\nas §1"}, "[10]": {"system": "ES2 and SKOV3 ovarian cancer cells", "assay": "Cell cycle arrest", "assay_type": "cell-based", "settings": "S phase"}, "[11]": {"system": "OCa cells", "assay": "MTT assay in OCa cells", "assay_type": "cell-based", "method": "as §4, §3, §1"}, "[12]": {"system": "ovarian cancer cells", "assay": "Growth inhibition of ovarian cancer cells", "assay_type": "cell-based", "excerpt": "as §7, §8"}, "[13]": {"system": "ES2 CDX tumors", "assay": "ES2 CDX tumors", "assay_type": "in vivo, nude mice", "settings": "15 days", "method": "FIG. 47: ES2/GFP/LUC cells were injected i.p. and tumors established. Mice (n=5) were treated with vehicle or ERX-208 (10 mg/kg/day/i.p). Tumor volume, tumor weight, number of tumor nodules are shown. **p<0.01,****p<0.0001.\nas §2"}, "[14]": {"system": "ES2 and SKOV3 ovarian cancer cells", "assay": "Colony formation assay", "assay_type": "cell-based", "method": "FIG. 43: ES2 and SKOV3 cells were treated with ERX-208 and its effect on cell survival was measured using colony formation assays. ****p<0.0001.\nas §1"}},
  "note": "Like-named read-outs stand apart in the source and are kept apart here.",
  "data": [
    {"smiles": "CC(C)COc1cc(C(=O)Nc2ccc(C(=O)N[C@H]3CC[C@H](C(=O)Nc4cnc5ccccc5c4)CC3)cc2OCC(C)C)ccc1NC(=O)c1ccc([N+](=O)[O-])c(OCCO)c1", "note": "[TK208]", "values": [
      {"measurement": "invasion", "setting": "[1]", "result": "reduces invasion"},
      {"measurement": "invasion", "setting": "[1]; listed as ERX-208", "result": "reduced"},
      {"measurement": "reduction of tumor volume", "setting": "[2]; 10 mg/kg/ip 5 days/week", "result": "~68", "unit": "%"},
      {"measurement": "body weight", "setting": "[2]; 10 mg/kg/ip", "result": "no significant changes in body weight"},
      {"measurement": "reduction in tumor weight", "setting": "[2]; 10 mg/kg/ip", "result": 60, "unit": "%"},
      {"measurement": "activity in IOSE", "setting": "[3]", "result": "limited activity"},
      {"measurement": "apoptosis", "setting": "[4]", "result": "promotes apoptosis"},
      {"measurement": "apoptosis of carboplatin resistant OCa cells", "setting": "[5]", "result": "promoted apoptosis"},
      {"measurement": "viability of carboplatin resistant OCa cells", "setting": "[5]", "result": "significantly reduced viability"},
      {"measurement": "IC50", "setting": "[6]", "result": "10 to 100", "unit": "nM"},
      {"measurement": "reduction in tumor volume", "setting": "[7]", "result": "~60", "unit": "%"},
      {"measurement": "mouse body weight", "setting": "[8]; mouse, in vivo", "result": "no effect on mouse body weight"},
      {"measurement": "reduction of ovarian tumor volume", "setting": "[8]; xenograft and PDX models", "result": "good efficacy"},
      {"measurement": "induction of CHOP mRNA", "setting": "[9]; 100 nM, within 24 h", "result": "> 15", "unit": "fold"},
      {"measurement": "induction of sXBP1 mRNA", "setting": "[9]; 100 nM, within 24 h", "result": "> 10", "unit": "fold"},
      {"measurement": "IC50", "setting": "[9]; OCa cells, read-out: IC50 for inducing ERS", "result": "50 to 100", "unit": "nM"},
      {"measurement": "induction of UPR components at the protein level", "setting": "[9]; multiple OCa cell lines", "result": "induce classic UPR components peIF2a, CHOP and LC3B"},
      {"measurement": "growth arrest", "setting": "[10]", "result": "promotes growth arrest"},
      {"measurement": "activity against OCa cells / cell viability", "setting": "[11]", "result": "reduces cell viability"},
      {"measurement": "IC50", "setting": "[11]; read-out: IC50 in reducing the growth of OCa cells", "result": "50 to 100", "unit": "nM"},
      {"measurement": "IC50", "setting": "[12]", "result": "10 to 100", "unit": "nM"},
      {"measurement": "reduction of tumor volume", "setting": "[13]; 10 mg/kg/ip 5 days/week, Xenogen-IVIS", "result": "~60", "unit": "%"},
      {"measurement": "body weight", "setting": "[13]; 10 mg/kg/ip", "result": "no significant change in body weight"},
      {"measurement": "reduction in tumor nodules", "setting": "[13]; 10 mg/kg/ip", "result": "~50", "unit": "%"},
      {"measurement": "reduction in tumor weight", "setting": "[13]; 10 mg/kg/ip", "result": "~50", "unit": "%"},
      {"measurement": "colony formation", "setting": "[14]", "result": "reduces colony formation"},
      {"measurement": "colony formation", "setting": "[14]; listed as ERX-208", "result": "reduced colony formation"}
    ]}
  ]
}
